{"source": "paper PMC7224190", "about": "“Pharmacological inhibition of PRMT7 links arginine monomethylation to the cellular stress response” (Nature Communications, 2020)", "experiment_in_all_cases": "biochemical", "design_in_all_cases": "radiometric methyltransferase assay with tritiated SAM, IC50", "key": {"PRMT9": {"molecular_target": "T1, PRMT9 (Homo sapiens, UniProt Q6P2P2)", "T1 sequence (Q6P2P2 1-845)": "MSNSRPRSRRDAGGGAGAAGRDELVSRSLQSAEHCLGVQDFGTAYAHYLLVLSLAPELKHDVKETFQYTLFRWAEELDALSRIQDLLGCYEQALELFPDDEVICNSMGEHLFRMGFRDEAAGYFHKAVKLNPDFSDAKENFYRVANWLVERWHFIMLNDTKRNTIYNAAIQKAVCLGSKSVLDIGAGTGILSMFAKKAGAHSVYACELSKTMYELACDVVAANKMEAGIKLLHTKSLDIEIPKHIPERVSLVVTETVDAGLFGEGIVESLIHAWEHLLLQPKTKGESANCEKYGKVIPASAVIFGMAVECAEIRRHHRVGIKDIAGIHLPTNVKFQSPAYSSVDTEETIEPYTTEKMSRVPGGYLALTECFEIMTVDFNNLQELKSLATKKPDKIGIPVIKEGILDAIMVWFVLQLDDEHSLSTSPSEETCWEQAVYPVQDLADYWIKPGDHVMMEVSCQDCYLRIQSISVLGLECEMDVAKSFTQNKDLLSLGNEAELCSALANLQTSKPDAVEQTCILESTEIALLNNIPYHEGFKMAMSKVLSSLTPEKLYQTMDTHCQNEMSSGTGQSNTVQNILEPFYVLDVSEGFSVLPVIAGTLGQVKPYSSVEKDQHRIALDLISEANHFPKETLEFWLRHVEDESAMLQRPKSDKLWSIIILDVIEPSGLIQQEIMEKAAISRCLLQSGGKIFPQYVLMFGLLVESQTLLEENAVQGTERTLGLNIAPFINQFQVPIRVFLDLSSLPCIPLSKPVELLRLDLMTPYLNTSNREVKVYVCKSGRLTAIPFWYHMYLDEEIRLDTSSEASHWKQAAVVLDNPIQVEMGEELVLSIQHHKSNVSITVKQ", "protocol": "(§1) The methyltransferase selectivity was assessed at two compound concentrations of 1 and 10 μM by radiometric assays using tritiated-SAM. For methyltransferases: MLL1, MLL3, EZH1 (PRC2), and EZH2 (PRC2), G9a, GLP, SUV39H1, SUV39H2, SUV420H1, SUV420H2, SETD2, SETD8, SETDB1, SETD7, PRMT1, PRMT3, PRMT4, PRMT5/ MEP50 complex, PRMT6, PRMT7, PRMT8, PRMT9, PRDM9, SMYD2, SMYD3, DNMT1, and BCDIN3D the incorporation of a tritium-labeled methyl group into biotinylated substrate was monitored using scintillation proximity assay (SPA). Briefly, a 10 μL reaction containing ^3H-SAM and substrate at concentrations close to the apparent Km values for each enzyme (balanced conditions) was prepared. The reactions were quenched with 10 μL of 7.5 M guanidine hydrochloride; 180 μL of 20 mM Tris buffer (pH 8.0) were added, and the mixture was transferred to a 96-well FlashPlate and incubated for 1 h. The counts per minute (CPM) was measured on a TopCount plate reader. The CPM in the absence of compound or enzyme was defined as 100% activity and background (0%), respectively, for each dataset[74]–[76]. Selectivity of SGC8158 against 342 kinases was evaluated in a kinase panel TR-FRET assay at 1 and 0.1 μM compound in duplicates as described before. Briefly, tagged kinases were incubated with compound and staurosporine-based fluorescent probe where the binding was detected using Tb conjugated anti-tag antibody energy transfer to the probe. Excitation wavelength was 337 nm and fluorescent emission signal was measured for Tb (486 nm) and fluorescent probe (BODIPY, 515 nm). Specific and non-specific binding was determined in the absence and presence of unlabeled staurosporine. Assays using biotinylated H2B (23–37) as a substrate were performed in buffer (20 mM Tris–HCl, pH 8.5, 0.01% Tween-20, and 5 mM DTT) containing 5 nM PRMT7, 1.1 µM ^3H-SAM (Cat.# NET155V250UC; Perkin Elmer; www.perkinelmer.com) and 0.3 µM H2B (23–37). The reaction mixtures were incubated for 60 min at 23 °C. To stop the enzymatic reactions, 10 µL of 7.5 M guanidine hydrochloride was added, followed by 180 µL of buffer (20 mM Tris, pH 8.0), mixed and then transferred to a 96-well FlashPlate (Cat.# SMP103; Perkin Elmer; www.perkinelmer.com). After mixing, the reaction mixtures in Flash plates were incubated for 1 h and the CPM were measured using Topcount plate reader (Perkin Elmer, www.perkinelmer.com). The CPM counts in the absence of compound for each dataset were defined as 100% activity. In the absence of the enzyme, the CPM counts in each dataset were defined as background (0%). The IC50 values were determined using GraphPad Prism 7 software. For the kinetic analysis of HSPA8 methylation by PRMT7, the assay mixture contained 20 mM Tris–HCl, pH 8.5, 0.01% Tween-20, and 5 mM dithiothreitol (DTT), 1 mM MgCl2, 1 mM ATP where indicated, 250 nM PRMT7, fixed concentration (20 µM) of SAM, various concentrations (up to 40 µM) of HSPA8; or fixed concentration (10 µM) of HSPA8 with different concentrations of SAM (up to 20 µM). […] To determine the mode of action, the experiments were performed in the presence of fixed biotinylated H2B peptide (residues 23–37) or HSPA8 substrate concentration and increasing SAM concentration or at fixed concentration of SAM and varying concentration of the substrate. Twenty µL of reaction mixtures were incubated at 23 °C for 60 min. To stop reactions, 100 µL of 10% trichloroacetic acid (TCA) was added, mixed and transferred to filter-plates (Millipore; cat.# MSFBN6B10; www.millipore.com). Plates were centrifuged at 930 × g (Allegra X-15R—Beckman Coulter, Inc.) for 2 min followed by two additional 10% TCA washes and one ethanol wash followed by centrifugation. Plates were dried and 30 µL MicroScint-O ("}, "PRMT6": {"molecular_target": "PRMT6 (Homo sapiens, UniProt Q96LA8)", "sequence (Q96LA8 whole entry)": "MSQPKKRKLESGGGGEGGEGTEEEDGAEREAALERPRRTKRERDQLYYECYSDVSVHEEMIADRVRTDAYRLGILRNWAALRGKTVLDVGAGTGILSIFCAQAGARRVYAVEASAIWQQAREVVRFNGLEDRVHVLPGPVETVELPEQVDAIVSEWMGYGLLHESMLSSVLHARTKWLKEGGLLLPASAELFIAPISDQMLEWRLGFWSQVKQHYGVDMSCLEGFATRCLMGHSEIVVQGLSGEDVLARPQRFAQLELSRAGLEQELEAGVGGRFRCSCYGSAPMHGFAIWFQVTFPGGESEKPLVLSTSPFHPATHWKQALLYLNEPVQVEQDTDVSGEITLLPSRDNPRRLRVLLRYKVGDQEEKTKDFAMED", "protocol": "as §1"}, "PRMT5-MEP50": {"molecular_target": "PRMT5-MEP50 (Homo sapiens, UniProt O14744)", "sequence (O14744 whole entry)": "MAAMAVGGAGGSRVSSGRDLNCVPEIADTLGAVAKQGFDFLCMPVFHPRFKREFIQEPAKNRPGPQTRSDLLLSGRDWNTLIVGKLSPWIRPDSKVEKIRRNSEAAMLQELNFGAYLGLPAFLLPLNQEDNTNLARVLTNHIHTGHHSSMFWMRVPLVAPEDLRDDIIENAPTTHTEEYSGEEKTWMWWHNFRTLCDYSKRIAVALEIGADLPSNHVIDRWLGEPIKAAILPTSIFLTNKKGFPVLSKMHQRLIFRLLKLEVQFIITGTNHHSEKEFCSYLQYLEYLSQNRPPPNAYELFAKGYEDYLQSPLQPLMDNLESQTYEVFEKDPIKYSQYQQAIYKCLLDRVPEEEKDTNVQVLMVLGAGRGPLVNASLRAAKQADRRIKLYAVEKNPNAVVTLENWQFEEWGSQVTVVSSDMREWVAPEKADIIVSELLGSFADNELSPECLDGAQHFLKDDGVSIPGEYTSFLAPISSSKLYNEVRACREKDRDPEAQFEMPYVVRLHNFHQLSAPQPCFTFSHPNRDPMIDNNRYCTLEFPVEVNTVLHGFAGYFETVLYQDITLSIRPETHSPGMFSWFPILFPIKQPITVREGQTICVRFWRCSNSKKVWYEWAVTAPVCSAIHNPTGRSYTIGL", "sequence (Q9BQA1 whole entry partner)": "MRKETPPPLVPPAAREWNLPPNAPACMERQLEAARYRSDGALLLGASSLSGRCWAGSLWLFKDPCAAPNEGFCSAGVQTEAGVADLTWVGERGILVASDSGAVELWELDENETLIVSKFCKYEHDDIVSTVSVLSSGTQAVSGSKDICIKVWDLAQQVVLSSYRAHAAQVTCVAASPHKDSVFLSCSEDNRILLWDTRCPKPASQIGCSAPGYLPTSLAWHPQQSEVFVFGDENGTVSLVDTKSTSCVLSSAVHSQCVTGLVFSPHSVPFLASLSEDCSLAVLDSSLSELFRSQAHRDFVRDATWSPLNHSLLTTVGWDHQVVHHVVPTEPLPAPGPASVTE", "protocol": "as §1"}}, "note": "pIC50: −log10 of the molar value."}
{"smiles": "Nc1ncnc2c1ncn2[C@@H]1O[C@H](CSCCCNCc2cccc(-c3ccc(Cl)cc3)c2)[C@@H](O)[C@H]1O", "note": "[SGC8172]", "values": [{"measurement": "pIC50", "setting": "PRMT9", "value": 6.86}, {"measurement": "pIC50", "setting": "PRMT6", "value": "~5.92"}, {"measurement": "pIC50", "setting": "PRMT5-MEP50", "value": 7.36}]}
